What was measured:
Assay type in all cases: in vivo
[1] = tested on: Plutella xylostella; test: Example B5: Plutella xylostella (Diamond Back Moth); details: 192 h, application rate of 200 ppm, 24-well artificial diet, eggs, 8 days after infestation, read-out: control in at least one of the two categories (mortality or growth inhibition)
Experimental: Example B5: Plutella xylostella (Diamond Back Moth)
24-well microtiter plates with artificial diet were treated with aqueous test solutions prepared from 10′000 ppm DMSO stock solutions by pipetting. After drying, Plutella eggs were pipetted through a plastic stencil onto a gel blotting paper and the plate was closed with it. The samples were assessed for mortality and growth inhibition in comparison to untreated samples 8 days after infestation.

[2] = tested on: Euschistus heros; test: Example B2: Euschistus heros (Neotropical Brown Stink Bug); details: 120 h, application rate of 200 ppm, sprayed soybean leaves, N2 nymphs, 5 days after infestation, read-out: control in at least one of the two categories (mortality or growth inhibition)
Experimental: Example B2: Euschistus heros (Neotropical Brown Stink Bug)
Soybean leaves on agar in 24-well microtiter plates were sprayed with aqueous test solutions prepared from 10′000 ppm DMSO stock solutions. After drying the leaves were infested with N2 nymphs. The samples were assessed for mortality and growth inhibition in comparison to untreated samples 5 days after infestation.

[3] = tested on: Chilo suppressalis; test: Example B4: Chilo suppressalis (Striped Rice Stemborer); details: 144 h, application rate of 200 ppm, artificial diet, L2 larvae, 6 days after infestation, read-out: control in at least one of the three categories (mortality, anti-feedant or growth inhibition)
Experimental: Example B4: Chilo suppressalis (Striped Rice Stemborer)
24-well microtiter plates with artificial diet were treated with aqueous test solutions prepared from 10′000 ppm DMSO stock solutions by pipetting. After drying, the plates were infested with L2 larvae (6-8 per well). The samples were assessed for mortality, anti-feeding effect, and growth inhibition in comparison to untreated samples 6 days after infestation. Control of Chilo suppressalis by a test sample is given when at least one of the categories mortality, anti-feedant effect, and growth inhibition is higher than the untreated sample.

[4] = tested on: Diabrotica balteata; test: Example B1: Diabrotica balteata (Corn Root Worm); details: 96 h, application rate of 200 ppm, sprayed maize sprouts, L2 larvae, 4 days after infestation, read-out: control in at least one of the two categories (mortality or growth inhibition)
Experimental: Example B1: Diabrotica balteata (Corn Root Worm)
Maize sprouts placed onto an agar layer in 24-well microtiter plates were treated with aqueous test solutions prepared from 10′000 ppm DMSO stock solutions by spraying. After drying, the plates were infested with L2 larvae (6 to 10 per well). The samples were assessed for mortality and growth inhibition in comparison to untreated samples 4 days after infestation.

[5] = tested on: Plutella xylostella; test: Example B12: Plutella xylostella (Diamondback Moth), 96-well artificial diet; details: 216 h, application rate of 500 ppm, eggs, 9 days after infestation
Experimental: Example B12: Plutella xylostella (Diamondback Moth)
96-well microtiter plates containing artificial diet were treated with aqueous test solutions, prepared from 10′000 ppm DMSO stock solutions, by a liquid handling robot. After drying, eggs (˜30 per well) were infested onto a netted lid which was suspended above the diet. The eggs hatch and L1 larvae move down to the diet. The samples were assessed for mortality 9 days after infestation.

[6] = tested on: Spodoptera littoralis; test: Example B9: Spodoptera littoralis (Egyptian Cotton Leaf Worm), cotton leaf disc spray; details: foliar, 72 h, application rate of 200 ppm, sprayed cotton leaf discs, L1 larvae, 3 days after infestation, read-out: control in at least one of the three categories (mortality, anti-feedant or growth inhibition)
[7] = tested on: Myzus persicae; test: Example B8: Myzus persicae (Green Peach Aphid): Intrinsic Activity; details: 120 h, test rate of 12 ppm, 24-well sucrose solution under Parafilm, 5 days after infestation
Source text: Example B8: Myzus persicae (Green Peach Aphid): Intrinsic Activity
Test compounds prepared from 10′000 ppm DMSO stock solutions were applied by pipette into 24-well microtiter plates and mixed with sucrose solution. The plates were closed with a stretched Parafilm. A plastic stencil with 24 holes was placed onto the plate and infested pea seedlings were placed directly on the Parafilm. The infested plate was closed with a gel blotting paper and another plastic stencil and then turned upside down. The samples were assessed for mortality 5 days after infestation.

[8] = tested on: Myzus persicae; test: Example B11: Myzus persicae (Green Peach Aphid), 96-well sucrose solution; details: 120 h, application rate of 50 ppm, 96-well sucrose solution under Parafilm, 5 days after infestation
Source text: Example B11: Myzus persicae (Green Peach Aphid)
Test compounds prepared from 10′000 ppm DMSO stock solutions were applied by a liquid handling robot into 96-well microtiter plates and mixed with a sucrose solution. Parafilm was stretched over the 96-well microtiter plate and a plastic stencil with 96 holes was placed onto the plate. Aphids were sieved into the wells directly onto the Parafilm. The infested plates were closed with a gel blotting card and a second plastic stencil and then turned upside down. The samples were assessed for mortality 5 days after infestation.

[9] = tested on: Myzus persicae; test: Example B7: Myzus persicae (Green Peach Aphid): Systemic Activity; details: 144 h, test rate of 24 ppm, roots of pea seedlings in test solution, 6 days
Experimental: Example B7: Myzus persicae (Green Peach Aphid): Systemic Activity
Roots of pea seedlings infested with an aphid population of mixed ages were placed directly into aqueous test solutions prepared from 10′000 DMSO stock solutions. The samples were assessed for mortality 6 days after placing seedlings into test solutions.

CC(NC(=O)c1cc(Cl)nc(C(F)(F)F)c1)c1nccnc1-c1ncccn1 (centres unmarked) [P1, 2-chloro-N-[1-(3-pyrimidin-2-ylpyrazin-2-yl)ethyl]-6-(trifluoromethyl)pyridine-4-carboxamide]
≥ 80%: percent control (mortality or growth inhibition) at 200 ppm [1] | percent control (mortality or growth inhibition) at 200 ppm [2] | percent control (mortality, anti-feedant effect or growth inhibition) at 200 ppm [3] | percent control (mortality or growth inhibition) at 200 ppm [4]

CC(NC(=O)c1cc(C(F)(F)F)cc(S(=O)(=O)C(F)(F)F)c1)c1nccnc1-c1ncccn1 (centres unmarked) [P19, N-[1-(3-pyrimidin-2-ylpyrazin-2-yl)ethyl]-3-(trifluoromethyl)-5-(trifluoromethylsulfonyl) benzamide]
≥ 80%: percent control (mortality or growth inhibition) at 200 ppm [1] | mortality at 500 ppm [5] | percent control (mortality, anti-feedant effect or growth inhibition) at 200 ppm [6] | percent control (mortality, anti-feedant effect or growth inhibition) at 200 ppm [3] | mortality at 12 ppm [7] | percent control (mortality or growth inhibition) at 200 ppm [4] | mortality at 50 ppm [8]

CC(NC(=O)c1cc(C2CC2C(F)(F)F)cc(C(F)(F)F)c1)c1nccnc1-c1ncccn1 (centres unmarked) [P37, N-[1-(3-pyrimidin-2-ylpyrazin-2-yl)ethyl]-3-(trifluoromethyl)-5-[2-(trifluoromethyl)cyclopropyl] benzamide]
≥ 80%: percent control (mortality or growth inhibition) at 200 ppm [1] | mortality at 500 ppm [5] | percent control (mortality, anti-feedant effect or growth inhibition) at 200 ppm [6] | percent control (mortality, anti-feedant effect or growth inhibition) at 200 ppm [3] | mortality at 12 ppm [7] | percent control (mortality or growth inhibition) at 200 ppm [4]

CC(NC(=O)c1cc(C(F)(F)F)cc(C2(C#N)CC2)c1)c1nccnc1-c1ccc(F)cn1 (centres unmarked) [P23, 3-(1-cyanocyclopropyl)-N-[1-[3-(5-fluoro-2-pyridyl)pyrazin-2-yl]ethyl]-5-(trifluoromethyl) benzamide]
≥ 80%: percent control (mortality or growth inhibition) at 200 ppm [1] | mortality at 500 ppm [5] | mortality at 50 ppm [8]

CC(NC(=O)c1cc(C(F)(F)F)cc(C2(C#N)CC2)c1)c1nccnc1-c1ccccn1 (centres unmarked) [P22, 3-(1-cyanocyclopropyl)-N-[1-[3-(2-pyridyl)pyrazin-2-yl]ethyl]-5-(trifluoromethyl) benzamide]
≥ 80%: percent control (mortality or growth inhibition) at 200 ppm [1] | mortality at 500 ppm [5] | percent control (mortality, anti-feedant effect or growth inhibition) at 200 ppm [6] | percent control (mortality, anti-feedant effect or growth inhibition) at 200 ppm [3] | percent control (mortality or growth inhibition) at 200 ppm [4] | mortality at 50 ppm [8]

Cc1cnc(-c2nccnc2C(C)NC(=O)c2cc(C(F)(F)F)cc(C(C)(C)C#N)c2)nc1 (centres unmarked) [P48, 3-(1-cyano-1-methyl-ethyl)-N-[1-[3-(5-methylpyrimidin-2-yl)pyrazin-2-yl]ethyl]-5-(trifluoromethyl)benzamide]
≥ 80%: percent control (mortality or growth inhibition) at 200 ppm [1] | percent control (mortality, anti-feedant effect or growth inhibition) at 200 ppm [6] | percent control (mortality or growth inhibition) at 200 ppm [2] | percent control (mortality, anti-feedant effect or growth inhibition) at 200 ppm [3]

CC(NC(=O)c1cc(C(F)(F)F)nc(C2(C#N)CC2)c1)c1nccnc1-c1ncc(Br)cn1 (centres unmarked) [P55, N-[1-[3-(5-bromopyrimidin-2-yl)pyrazin-2-yl]ethyl]-2-(1-cyanocyclopropyl)-6-(trifluoromethyl)pyridine-4-carboxamide]
≥ 80%: percent control (mortality or growth inhibition) at 200 ppm [1] | percent control (mortality, anti-feedant effect or growth inhibition) at 200 ppm [6] | percent control (mortality or growth inhibition) at 200 ppm [2] | percent control (mortality, anti-feedant effect or growth inhibition) at 200 ppm [3] | mortality at 12 ppm [7] | percent control (mortality or growth inhibition) at 200 ppm [4]

CC(NC(=O)c1cc(C(F)(F)F)cc(C(C)(C)C#N)c1)c1nccnc1-c1ncccn1 (centres unmarked) [P50, 3-(1-cyano-1-methyl-ethyl)-N-[1-(3-pyrimidin-2-ylpyrazin-2-yl)ethyl]-5-(trifluoromethyl)benzamide]
≥ 80%: percent control (mortality or growth inhibition) at 200 ppm [1] | percent control (mortality, anti-feedant effect or growth inhibition) at 200 ppm [6] | percent control (mortality or growth inhibition) at 200 ppm [2] | percent control (mortality, anti-feedant effect or growth inhibition) at 200 ppm [3] | mortality at 12 ppm [7] | percent control (mortality or growth inhibition) at 200 ppm [4] | mortality at 24 ppm [9]

CC(NC(=O)c1cc(C(F)(F)F)cc(C2(C#N)CC2)c1)c1nccnc1-c1ncc(C2CC2)cn1 (centres unmarked) [P3, 3-(1-cyanocyclopropyl)-N-[1-[3-(5-cyclopropylpyrimidin-2-yl)pyrazin-2-yl]ethyl]-5-(trifluoromethyl) benzamide]
≥ 80%: percent control (mortality or growth inhibition) at 200 ppm [1] | percent control (mortality, anti-feedant effect or growth inhibition) at 200 ppm [6] | percent control (mortality or growth inhibition) at 200 ppm [2] | percent control (mortality, anti-feedant effect or growth inhibition) at 200 ppm [3]

CC(NC(=O)c1cc(C(F)(F)F)cc(C(F)(F)C2CC2)c1)c1nccnc1-c1ccc(Br)cn1 (centres unmarked) [P21, N-[1-[3-(5-bromo-2-pyridyl)pyrazin-2-yl]ethyl]-3-[cyclopropyl(difluoro)methyl]-5-(trifluoromethyl) benzamide]
≥ 80%: percent control (mortality or growth inhibition) at 200 ppm [1] | mortality at 500 ppm [5] | percent control (mortality or growth inhibition) at 200 ppm [2]

CC(NC(=O)c1cc(C(F)(F)F)cc(C(F)(F)C2CC2)c1)c1nccnc1-c1ncccn1 (centres unmarked) [P30, 3-[cyclopropyl(difluoro)methyl]-N-[1-(3-pyrimidin-2-ylpyrazin-2-yl)ethyl]-5-(trifluoromethyl)benzamide]
≥ 80%: percent control (mortality or growth inhibition) at 200 ppm [1] | percent control (mortality, anti-feedant effect or growth inhibition) at 200 ppm [6] | percent control (mortality or growth inhibition) at 200 ppm [2] | percent control (mortality, anti-feedant effect or growth inhibition) at 200 ppm [3] | mortality at 12 ppm [7] | percent control (mortality or growth inhibition) at 200 ppm [4]

Cc1cnc(-c2nccnc2C(C)NC(=O)c2cc(C(F)(F)F)nc(C3(C#N)CC3)c2)nc1 (centres unmarked) [P2, 2-(1-cyanocyclopropyl)-N-[1-[3-(5-methylpyrimidin-2-yl)pyrazin-2-yl]ethyl]-6-(trifluoromethyl)pyridine-4-carboxamide]
≥ 80%: percent control (mortality or growth inhibition) at 200 ppm [1] | percent control (mortality, anti-feedant effect or growth inhibition) at 200 ppm [6] | percent control (mortality or growth inhibition) at 200 ppm [2] | percent control (mortality, anti-feedant effect or growth inhibition) at 200 ppm [3]

CC(NC(=O)c1cc(C2CC2)cc(C(F)(F)F)c1)c1nccnc1-c1ncccn1 (centres unmarked) [P41, 3-cyclopropyl-N-[1-(3-pyrimidin-2-ylpyrazin-2-yl)ethyl]-5-(trifluoromethyl)benzamide]
≥ 80%: percent control (mortality or growth inhibition) at 200 ppm [1] | percent control (mortality, anti-feedant effect or growth inhibition) at 200 ppm [6] | percent control (mortality, anti-feedant effect or growth inhibition) at 200 ppm [3] | mortality at 12 ppm [7] | percent control (mortality or growth inhibition) at 200 ppm [4]

CC(NC(=O)c1cc(C(F)(F)F)nc(C2(C#N)CC2)c1)c1nccnc1-c1ccccn1 (centres unmarked) [P26, 2-(1-cyanocyclopropyl)-N-[1-[3-(2-pyridyl)pyrazin-2-yl]ethyl]-6-(trifluoromethyl)pyridine-4-carboxamide]
≥ 80%: percent control (mortality or growth inhibition) at 200 ppm [1] | mortality at 500 ppm [5] | percent control (mortality, anti-feedant effect or growth inhibition) at 200 ppm [6] | percent control (mortality, anti-feedant effect or growth inhibition) at 200 ppm [3] | percent control (mortality or growth inhibition) at 200 ppm [4] | mortality at 50 ppm [8]
